Laboratory results as given in the NIST ThermoML archive (doi:10.1016/j.jct.2018.02.013).

Tests used:
[1] = 101.33 kPa, Liquid; for thermal conductivity: transient hot wire; for mass density: Vibrating tube method; for viscosity: Cone and plate viscometry; for electrical conductivity: Direct current cell with electrodes
[2] = molar heat capacity at constant pressure; conditions: 101.33 kPa, Liquid, Small sample (50 mg) DSC

CCCCCCCC(=O)[O-].CCCCCCCCCCCCCC[P+](CCCCCC)(CCCCCC)CCCCCC [trihexyl(tetradecyl)phosphonium octanoate]
Conditions | electrical conductivity [S/m] | mass density [kg/m3] | molar heat capacity at constant pressure [J/K/mol] | thermal conductivity [W/m/K] | viscosity [mPa·s]
[1], 278.28 K | – | – | – | 0.1611 | –
[1], 288.24 K | – | – | – | 0.1601 | –
[1], 293.15 K | – | 884.5 | – | – | –
[1], 293.2 K | – | – | – | – | 513.6
[1], 297.87 K | – | – | – | 0.1581 | –
[1], 298.15 K | – | 881.4 | – | – | –
[1], 298.2 K | – | – | – | – | 400.2
[1], 300.6 K | 0.00251 | – | – | – | –
[1], 303.15 K | – | 878.4 | – | – | –
[1], 303.2 K | – | – | – | – | 301.2
[1], 303.6 K | 0.00345 | – | – | – | –
[1], 307.71 K | – | – | – | 0.1567 | –
[1], 308 K | 0.00428 | – | – | – | –
[1], 308.2 K | – | – | – | – | 230.8
[1], 313.15 K | – | 872.1 | – | – | –
[1], 313.2 K | – | – | – | – | 179.3
[1], 313.4 K | 0.0057 | – | – | – | –
[1], 317.92 K | – | – | – | 0.1561 | –
[1], 318.2 K | – | – | – | – | 141.2
[1], 319 K | 0.0073 | – | – | – | –
[1], 323.15 K | – | 865.9 | – | – | –
[1], 323.2 K | – | – | – | – | 113
[1], 323.8 K | 0.0091 | – | – | – | –
[1], 328.17 K | – | – | – | 0.1547 | –
[1], 328.2 K | – | – | – | – | 91.42
[1], 328.4 K | 0.011 | – | – | – | –
[1], 333.15 K | – | 859.8 | – | – | –
[1], 333.2 K | 0.0137 | – | – | – | 75.22
[1], 337.66 K | – | – | – | 0.1527 | –
[1], 338.2 K | – | – | – | – | 62.47
[1], 338.6 K | 0.017 | – | – | – | –
[1], 343 K | 0.0198 | – | – | – | –
[1], 343.15 K | – | 853.7 | – | – | –
[1], 343.2 K | – | – | – | – | 52.65
[1], 347.76 K | – | – | – | 0.1507 | –
[1], 348.2 K | – | – | – | – | 44.4
[1], 349.5 K | 0.0247 | – | – | – | –
[1], 353.15 K | – | 847.6 | – | – | –
[1], 353.2 K | – | – | – | – | 37.98
[1], 358.08 K | – | – | – | 0.1497 | –
[1], 358.2 K | – | – | – | – | 32.78
[1], 363.15 K | – | 841.6 | – | – | –
[1], 363.2 K | – | – | – | – | 28.12
[1], 368.2 K | – | – | – | – | 24.48
[2], 293.15 K | – | – | 1138.1 | – | –
[2], 298.15 K | – | – | 1150.7 | – | –
[2], 303.15 K | – | – | 1160.7 | – | –
[2], 308.15 K | – | – | 1170.1 | – | –
[2], 313.15 K | – | – | 1178.9 | – | –
[2], 318.15 K | – | – | 1185.8 | – | –
[2], 323.15 K | – | – | 1192.7 | – | –
[2], 328.15 K | – | – | 1199.6 | – | –
[2], 333.15 K | – | – | 1206.5 | – | –
[2], 338.15 K | – | – | 1213.4 | – | –
[2], 343.15 K | – | – | 1220.9 | – | –
[2], 348.15 K | – | – | 1228.4 | – | –
[2], 353.15 K | – | – | 1235.3 | – | –
[2], 358.15 K | – | – | 1242.2 | – | –
[2], 363.15 K | – | – | 1247.2 | – | –

CCCCCCCCCC(=O)[O-].CCCCCCCCCCCCCC[P+](CCCCCC)(CCCCCC)CCCCCC [trihexyltetradecylphosphonium decanoate]
Conditions | electrical conductivity [S/m] | mass density [kg/m3] | molar heat capacity at constant pressure [J/K/mol] | thermal conductivity [W/m/K] | viscosity [mPa·s]
[1], 278.09 K | – | – | – | 0.1601 | –
[1], 288 K | – | – | – | 0.1591 | –
[1], 293.15 K | – | 880.4 | – | – | –
[1], 293.2 K | – | – | – | – | 546.3
[1], 297.79 K | – | – | – | 0.1571 | –
[1], 298.15 K | – | 877.3 | – | – | –
[1], 298.2 K | – | – | – | – | 409.8
[1], 298.8 K | 0.00174 | – | – | – | –
[1], 303.15 K | – | 874.6 | – | – | –
[1], 303.2 K | – | – | – | – | 314.5
[1], 303.8 K | 0.00239 | – | – | – | –
[1], 308 K | 0.00297 | – | – | – | –
[1], 308.16 K | – | – | – | 0.1545 | –
[1], 308.2 K | – | – | – | – | 242.5
[1], 313.15 K | – | 868.1 | – | – | –
[1], 313.2 K | – | – | – | – | 189.8
[1], 313.8 K | 0.00395 | – | – | – | –
[1], 318.13 K | – | – | – | 0.1542 | –
[1], 318.2 K | – | – | – | – | 151.3
[1], 319.6 K | 0.00506 | – | – | – | –
[1], 323.15 K | – | 862 | – | – | –
[1], 323.2 K | 0.00631 | – | – | – | 121.8
[1], 326.82 K | – | – | – | 0.1535 | –
[1], 328.2 K | 0.00763 | – | – | – | 99.78
[1], 333.15 K | – | 855.7 | – | – | –
[1], 333.2 K | – | – | – | – | 82.68
[1], 333.4 K | 0.00949 | – | – | – | –
[1], 338.2 K | – | – | – | – | 68.76
[1], 338.3 K | 0.0118 | – | – | – | –
[1], 338.5 K | – | – | – | 0.1515 | –
[1], 343.15 K | – | 849.7 | – | – | –
[1], 343.2 K | – | – | – | – | 58.07
[1], 343.5 K | 0.0137 | – | – | – | –
[1], 347.3 K | – | – | – | 0.1502 | –
[1], 348.2 K | – | – | – | – | 49.28
[1], 349.7 K | 0.0171 | – | – | – | –
[1], 353.15 K | – | 843.3 | – | – | –
[1], 353.2 K | – | – | – | – | 42.21
[1], 358.2 K | – | – | – | – | 36.41
[1], 358.21 K | – | – | – | 0.1493 | –
[1], 363.15 K | – | 837.4 | – | – | –
[1], 363.2 K | – | – | – | – | 31.71
[1], 368.2 K | – | – | – | – | 27.59
[2], 293.15 K | – | – | 1181.2 | – | –
[2], 298.15 K | – | – | 1191.7 | – | –
[2], 303.15 K | – | – | 1199.5 | – | –
[2], 308.15 K | – | – | 1209.3 | – | –
[2], 313.15 K | – | – | 1217.2 | – | –
[2], 318.15 K | – | – | 1221.8 | – | –
[2], 323.15 K | – | – | 1230.3 | – | –
[2], 328.15 K | – | – | 1238.2 | – | –
[2], 333.15 K | – | – | 1246 | – | –
[2], 338.15 K | – | – | 1250.6 | – | –
[2], 343.15 K | – | – | 1264.4 | – | –
[2], 348.15 K | – | – | 1269.6 | – | –
[2], 353.15 K | – | – | 1278.8 | – | –
[2], 358.15 K | – | – | 1285.3 | – | –
[2], 363.15 K | – | – | 1296.5 | – | –
